# Experimental data as given in US9682976B2, “Protein kinase C inhibitors and uses thereof” (Rigel Pharmaceuticals, Inc., priority 2012, dated 2017).
# Test system: PKC mediated IL-2 production
# Experiment: IL-2 ELISA, human primary T cell, anti CD3+CD28+
# Assay type: cell-based
# Conditions: Homo sapiens, T-cell, 24 h, human primary T cells stimulated with αCD3 and αCD28, 24 hours
# Procedure, shortened: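 IL-2 was quantified by ELISA in 24 h supernatants from primary human T cells given a 1 h compound pre-treatment at 37° C. These cells had been expanded from blood mononuclear cells on αCD3/αCD28 with IL-2, and the IL-2 was removed by washing. Stimulation used plate-bound αCD3 ([…]) plus αCD28 (5 μg/ml); the counter assay used PMA (0.5 ng/ml) with ionomycin (0.1 uM) instead.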
row,EC50 [nM],SMILES
1,1000 to 10000,"CC1(C)Oc2ccc(Nc3ncc(F)c(N[C@@H]4C[C@@H]5CCCN5C(C)(C)C4)n3)cc2-n2c1nn(CCO)c2=O [Compound 268, 5-fluoro-N2-(1H-2,4-dihydron-2-(2-hydroxyethyl)-4,4-dimethyl-[1,2,4]triazolo[3,4-c][1,4]benzoxazin-1-one-8-yl)-N4-((7R,8aS)-octahydro-5,5-dimethylindolizin-7-yl)pyrimidine-2,4-diamine]"
2,500 to 1000,"CC1(C)C[C@H](Nc2nc(Nc3cccc(-n4nnnc4S(C)(=O)=O)c3)ncc2F)C[C@@H]2CCCN21 [Compound 269, 5-fluoro-N4-((7R,8aS)-octahydro-5,5-dimethylindolizin-7-yl)-N2-(3-(5-(methylsulfonyl)-1H-tetrazol-1-yl)phenyl)pyrimidine-2,4-diamine]"
3,500 to 1000,"C[S+]([O-])c1nnnn1-c1cccc(Nc2ncc(F)c(N[C@@H]3C[C@@H]4CCCN4C(C)(C)C3)n2)c1 (stereo partly drawn) [Compound 270, 5-fluoro-N4-((7R,8aS)-octahydro-5,5-dimethylindolizin-7-yl)-N2-(3-(5-(methylsulfinyl)-1H-tetrazol-1-yl)phenyl)pyrimidine-2,4-diamine]"
4,> 10000,"Cc1ccc(Nc2ncc(F)c(N[C@@H]3C[C@@H]4CCCN4C(C)(C)C3)n2)cc1-n1nn[nH]c1=O [Compound 272, 1-(5-(4-((7R,8aS)-octahydro-5,5-dimethylindolizin-7-ylamino)-5-fluoropyrimidin-2-ylamino)-2-methylphenyl)-1H-tetrazol-5(4H)-one]"
5,< 100,"Cc1ccc(Nc2ncc(F)c(N[C@@H]3C[C@@H]4CCCN4C(C)(C)C3)n2)cc1-n1nnn(C)c1=O [Compound 273, 1-(5-(4-((7R,8aS)-octahydro-5,5-dimethylindolizin-7-ylamino)-5-fluoropyrimidin-2-ylamino)-2-methylphenyl)-4-methyl-1H-tetrazol-5(4H)-one]"
6,100 to 500,"Cc1ccc(Nc2ncc(F)c(N[C@@H]3C[C@@H]4CCCN4C(C)(C)C3)n2)cc1-n1nnn(CCO)c1=O [Compound 275, 1-(5-(4-((7R,8aS)-octahydro-5,5-dimethylindolizin-7-ylamino)-5-fluoropyrimidin-2-ylamino)-2-methylphenyl)-4-(2-hydroxyethyl)-1H-tetrazol-5(4H)-one]"
7,< 100,"Cc1ccc(Nc2ncc(F)c(N[C@@H]3C[C@@H]4CCCN4C(C)(C)C3)n2)cc1-n1nnn(C2COC2)c1=O [Compound 276, 1-(5-(4-((7R,8aS)-octahydro-5,5-dimethylindolizin-7-ylamino)-5-fluoropyrimidin-2-ylamino)-2-methylphenyl)-4-(oxetan-3-yl)-1H-tetrazol-5(4H)-one]"
8,> 10000,"COc1ccc(Nc2ncc(F)c(N[C@@H]3C[C@@H]4CCCN4C(C)(C)C3)n2)cc1-n1nn[nH]c1=O [Compound 277, 1-(5-(4-((7R,8aS)-octahydro-5,5-dimethylindolizin-7-ylamino)-5-fluoropyrimidin-2-ylamino)-2-methoxyphenyl)-1H-tetrazol-5(4H)-one]"
9,< 100,"COc1ccc(Nc2ncc(F)c(N[C@@H]3C[C@@H]4CCCN4C(C)(C)C3)n2)cc1-n1nnn(C)c1=O [Compound 278, 1-(5-(4-((7R,8aS)-octahydro-5,5-dimethylindolizin-7-ylamino)-5-fluoropyrimidin-2-ylamino)-2-methoxyphenyl)-4-methyl-1H-tetrazol-5(4H)-one]"
10,500 to 1000,"COc1ccc(Nc2ncc(F)c(N[C@@H]3C[C@@H]4CCCN4C(C)(C)C3)n2)cc1-n1nnn(CCO)c1=O [Compound 280, 1-(5-(4-((7R,8aS)-octahydro-5,5-dimethylindolizin-7-ylamino)-5-fluoropyrimidin-2-ylamino)-2-methoxyphenyl)-4-(2-hydroxyethyl)-1H-tetrazol-5(4H)-one]"
11,< 100,"CSc1nnnn1-c1cc(Nc2ncc(F)c(N[C@@H]3C[C@@H]4CCCN4C(C)(C)C3)n2)ccc1C [Compound 281, 5-fluoro-N4-((7R,8aS)-octahydro-5,5-dimethylindolizin-7-yl)-N2-(4-methyl-3-(5-(methylthio)-1H-tetrazol-1-yl)phenyl)pyrimidine-2,4-diamine]"
12,< 100,"Cc1ccc(Nc2ncc(F)c(N[C@@H]3C[C@@H]4CCCN4C(C)(C)C3)n2)cc1-n1nnnc1SCCO [Compound 282, 2-(1-(5-(4-((7R,8aS)-octahydro-5,5-dimethylindolizin-7-ylamino)-5-fluoropyrimidin-2-ylamino)-2-methylphenyl)-1H-tetrazol-5-ylthio)ethanol]"
13,100 to 500,"Cn1nc2n(c1=O)-c1cc(Nc3ncc(F)c(N[C@@H]4C[C@@H]5CCCN5C(C)(C)C4)n3)ccc1OC21CCOCC1 [Compound 283, 5-fluoro-N2-(1H-2,4-dihydron-spiro(2H-1,4-benzoxazine-4,4′-[4H]pyran)-2-methyl-[1,2,4]triazolo[3,4-c][1,4]benzoxazin-1-one-8-yl)-N4-((7R,8aS)-octahydro-5,5-dimethylindolizin-7-yl)pyrimidine-2,4-diamine]"

# Continued, compound first:
row,SMILES,EC50 [nM]
1,"CNc1nc2cc(Nc3ncc(F)c(N[C@@H]4C[C@@H]5CCCN5C(C)(C)C4)n3)c(F)cc2o1 [Compound 253, N5-(4-((7R,8aS)-octahydro-5,5-dimethylindolizin-7-ylamino)-5-fluoropyrimidin-2-yl)-6-fluoro-N2-methylbenzo[d]oxazole-2,5-diamine]",1000 to 10000
2,"CC1(C)C[C@H](Nc2nc(Nc3cc(-n4nnnc4C4CC4)c(OC4COC4)cc3F)ncc2F)C[C@@H]2CCCN21 [Compound 255, N2-(5-(5-cyclopropyl-1H-tetrazol-1-yl)-2-fluoro-4-(oxetan-3-yloxy)phenyl)-5-fluoro-N4-((7R,8aS)-octahydro-5,5-dimethylindolizin-7-yl)pyrimidine-2,4-diamine]",< 100
3,"CC1(C)C[C@H](Nc2nc(Nc3cc(-n4nnnc4C4CC4)c(O)cc3F)ncc2F)C[C@@H]2CCCN21 [Compound 256, 4-(4-((7R,8aS)-octahydro-5,5-dimethylindolizin-7-ylamino)-5-fluoropyrimidin-2-ylamino)-2-(5-cyclopropyl-1H-tetrazol-1-yl)-5-fluorophenol]",1000 to 10000
4,"CC(C)Oc1cc(F)c(Nc2ncc(F)c(N[C@@H]3C[C@@H]4CCCN4C(C)(C)C3)n2)cc1-n1nnnc1C1CC1 [Compound 257, N2-(5-(5-cyclopropyl-1H-tetrazol-1-yl)-2-fluoro-4-isopropoxyphenyl)-5-fluoro-N4-((7R,8aS)-octahydro-5,5-dimethylindolizin-7-yl)pyrimidine-2,4-diamine]",> 10000
5,"CNc1nnnn1-c1cc(Nc2ncc(F)c(N[C@@H]3C[C@@H]4CCCN4C(C)(C)C3)n2)c(F)cc1OC1COC1 [Compound 258, 5-fluoro-N2-(2-fluoro-5-(5-(methylamino)-1H-tetrazol-1-yl)-4-(oxetan-3-yloxy)phenyl)-N4-((7R,8aS)-octahydro-5,5-dimethylindolizin-7-yl)pyrimidine-2,4-diamine]",1000 to 10000
6,"CC1(C)C[C@H](Nc2nc(Nc3cccc(-n4nnnc4S)c3)ncc2F)C[C@@H]2CCCN21 [Compound 259, 1-(3-(4-((7R,8aS)-octahydro-5,5-dimethylindolizin-7-ylamino)-5-fluoropyrimidin-2-ylamino)phenyl)-1H-tetrazole-5-thiol]",1000 to 10000
7,"CC1(C)C[C@H](Nc2nc(Nc3cccc(-n4nn[nH]c4=O)c3)ncc2F)C[C@@H]2CCCN21 [Compound 260, 1-(3-(4-((7R,8aS)-octahydro-5,5-dimethylindolizin-7-ylamino)-5-fluoropyrimidin-2-ylamino)phenyl)-1H-tetrazol-5(4H)-one]",> 10000
8,"CSc1nnnn1-c1cccc(Nc2ncc(F)c(N[C@@H]3C[C@@H]4CCCN4C(C)(C)C3)n2)c1 [Compound 261, 5-fluoro-N4-((7R,8aS)-octahydro-5,5-dimethylindolizin-7-yl)-N2-(3-(5-(methylthio)-1H-tetrazol-1-yl)phenyl)pyrimidine-2,4-diamine]",< 100
9,"CC1(C)C[C@H](Nc2nc(Nc3cccc(-n4nnnc4SC4COC4)c3)ncc2F)C[C@@H]2CCCN21 [Compound 262, 5-fluoro-N4-((7R,8aS)-octahydro-5,5-dimethylindolizin-7-yl)-N2-(3-(5-(oxetan-3-ylthio)-1H-tetrazol-1-yl)phenyl)pyrimidine-2,4-diamine]",< 100
10,"CC1(C)C[C@H](Nc2nc(Nc3cccc(-n4nnnc4SC(CO)CO)c3)ncc2F)C[C@@H]2CCCN21 [Compound 263, 2-(1-(3-(4-((7R,8aS)-octahydro-5,5-dimethylindolizin-7-ylamino)-5-fluoropyrimidin-2-ylamino)phenyl)-1H-tetrazol-5-ylthio)propane-1,3-diol]",100 to 500
11,"CC1(C)C[C@H](Nc2nc(Nc3cccc(-n4nnnc4SC(CN)CO)c3)ncc2F)C[C@@H]2CCCN21 (stereo partly drawn) [Compound 264, 2-(1-(3-(4-((7R,8aS)-octahydro-5,5-dimethylindolizin-7-ylamino)-5-fluoropyrimidin-2-ylamino)phenyl)-1H-tetrazol-5-ylthio)-3-aminopropan-1-ol]",1000 to 10000
12,"CC1(C)C[C@H](Nc2nc(Nc3cccc(-n4nnn(C5COC5)c4=O)c3)ncc2F)C[C@@H]2CCCN21 [Compound 265, 1-(3-(4-((7R,8aS)-octahydro-5,5-dimethylindolizin-7-ylamino)-5-fluoropyrimidin-2-ylamino)phenyl)-4-(oxetan-3-yl)-1H-tetrazol-5(4H)-one]",100 to 500
13,"CC1(C)C[C@H](Nc2nc(Nc3cccc(-n4nnnc4SCCO)c3)ncc2F)C[C@@H]2CCCN21 [Compound 266, 2-(1-(3-(4-((7R,8aS)-octahydro-5,5-dimethylindolizin-7-ylamino)-5-fluoropyrimidin-2-ylamino)phenyl)-1H-tetrazol-5-ylthio)ethanol]",< 100
14,"CC1(C)C[C@H](Nc2nc(Nc3cccc(-n4nnn(CCO)c4=O)c3)ncc2F)C[C@@H]2CCCN21 [Compound 267, 1-(3-(4-((7R,8aS)-octahydro-5,5-dimethylindolizin-7-ylamino)-5-fluoropyrimidin-2-ylamino)phenyl)-4-(2-hydroxyethyl)-1H-tetrazol-5(4H)-one]",100 to 500
